Data on 10 molecules can be found in PubChem BioAssay AID1918996 (Molecular Pharmacology Branch, DTP, NCI, 2023).

SMILES strings stand for the structures. Values joined by “and” are separate entries in the source; they are usually repeats but may differ in a detail not shown here. Equal entries are not always repeated.
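Also: spheroids also contain HUVEC endothelial cells and human MSC stroma; spheroids exposed to agents for seven days before luminescence viability read.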

One assay deals with 349418-098-R-PDC complex spheroid growth. Nature of the assay: Anticancer human tumor 349418-098-R-PDC patient-derived lung adenocarcinoma cell line growth inhibition [AhR]. The settings on record: compound 0.000316 µM; stronger effect = lower value. From the text: Multicellular complex tumor spheroid response to aryl hydrocarbon receptor antagonists in combination with a variety of drugs and investigational agents in selected tumor cell lines
The current study was undertaken to assess response to aryl hydrocarbon receptor antagonists in combination with standard-of-care drugs and investigational agents in solid tumor complex spheroid models. Complex spheroids include a stromal component modeled by human endothelial cells (HUVEC) and fibroblasts modeled by human mesenchymal stem cells (MSCs). The concentration ranges selected for each drug and investigational agent were based upon clinically achievable concentrations if the clinical Cmax of the agent was known.
Compounds. The drugs and investigational agents: BAY 2416964 (NSC825713), GNF351 (NSC835774), CH-223191 (NSC835775), CPI-455 (NSC825282), aza-TdCyd (NSC777586), decitabine (NSC127716), belinostat (NSC758774), entinostat (NSC756642), pevonedistat (NSC761192), tazemetostat (NSC777109), talazoparib (NSC765396), olaparib (NSC753686), selinexor (NSC780203), nedisertib (M3814, NSC802822), bortezomib (NSC756655), venetoclax (NSC766270), doxorubicin (NSC123127), elimusertib (BAY189344, NSC800525), ceralasertib (AZD6738, NSC777638), TAK-243 (NSC785004), alisertib (NSC759677), etoposide (NSC141540), topotecan (NSC609699), eribulin (NSC707389), gemcitabine (NSC613327), carboplatin (NSC241240), cisplatin (NSC119875), and SN-38 (NSC673596) were obtained from the National Cancer Institute (NCI) Developmental Therapeutics Program Chemical Repository (32). The FDA-approved anticancer drug set is available from the Developmental Therapeutics Program at https://dtp.cancer.gov/organization/dscb/obtaining/available plates.htm. […] The stock solutions were prepared in dimethyl sulfoxide (DMSO, Sigma-Aldrich, St. Louis, MO, cat. D2650), except for the platinum compounds which were prepared in saline (Quality Biological, Gaithersburg, MD, cat. 114-055-101), at 800-fold the tested concentration and stored at -70 degrees C prior to their use. All drugs and investigational agents were tested over a range starting from a high concentration at or near the clinical Cmax and decreasing in half-log increments. If the clinical Cmax for an agent had not been determined, the highest concentration tested was 10 microM (Table 1).
Cell Culture. All cells were maintained in an incubator at 37 degrees C and 5% CO2 with 95% humidity. The PDC lines were cultured according to standard operating procedures established by the NCI PDMR (https://pdmr.cancer.gov). Briefly, all PDCs were thawed and cultured in Matrigel-coated flasks prepared with a working solution of 1X Ham's F-12 nutrient mix, without supplementation (Invitrogen, Waltham, MA, cat. 11765054), 100 U/mL penicillin-streptomycin (Invitrogen, cat. 15140122), and 2.5% Matrigel (Corning Inc., Corning, NY, cat. 354248) for the first three passages. All PDCs were cultured in complete DMEM/F-12 media containing advanced DMEM/F-12 (Invitrogen, cat. 12634028), 4.9% defined fetal bovine serum, heat inactivated (HyClone Laboratories Inc., Logan, UT, cat. SH30070.03HI), 389 ng/mL hydrocortisone (Sigma-Aldrich, cat. H4001), 9.7 ng/mL human EGF recombinant protein (Invitrogen, cat. PHG0313), 23.4 microg/mL adenine (Sigma-Aldrich, cat. A2786), 97.3 U/mL penicillin-streptomycin (Invitrogen, cat. 15140122), 1.9 mM L-glutamine (Invitrogen, cat. 25030081), and 9.7 microM Y-27632 dihydrochloride (Tocris Bioscience, Bristol, United Kingdom, cat. 1254). The PDCs were cultured in complete DMEM/F12 media without 10 microM Y-27632 dihydrochloride for at least two passages prior to the screen. The established cell lines NCI-H1341 and […] were cultured in DMEM/F-12, HEPES (Invitrogen, cat. 11330032), 5% defined fetal bovine serum (HyClone Laboratories Inc., cat. SH30070.03), ITS premix universal culture supplement [insulin (5 microg/mL), transferrin (5 microg/mL), and selenious acid (5 ng/mL)] […]
In general, viability, T/C refers to the ratio of treated to control. In the case of `CC[C@@]1(O)C(=O)OCc2c1cc1n(c2=O)Cc2cc3c(CN(C)C)c(O)ccc3nc2-1`, the viability, T/C is 94.4% and 113% and 119%.
Still for that read-out and setting: the result for `Cn1ncnc1C1c2n[nH]c(=O)c3cc(F)cc(c23)NC1c1ccc(F)cc1` (stereo unspecified) reads 100% and 74.1% and 70.2%.

Still in this assay, the particulars now being: compound 0.000949 µM; stronger effect = lower value.
Consider `CC(C)CC(NC(=O)C(Cc1ccccc1)NC(=O)c1cnccn1)B(O)O` (stereo unspecified), for which the viability, T/C is 52.6% and 44.3% and 19.1%.
Turning to `CCc1c2c(nc3ccc(O)cc13)-c1cc3c(c(=O)n1C2)COC(=O)[C@]3(O)CC`, the viability, T/C is 55.3% and 67.2% and 40.5%.
On to `Nc1ncn(C2CC(O)C(CO)S2)c(=O)n1` (stereo unspecified), for which the viability, T/C was 97.2% and 92.9% and 82.7%.

Staying with this assay, now noted: compound 0.001 µM; stronger effect = lower value.
As to `CC[C@@]1(O)C(=O)OCc2c1cc1n(c2=O)Cc2cc3c(CN(C)C)c(O)ccc3nc2-1`, the viability, T/C was 97.3% and 89.4% and 89.3%.
Take `Cn1ncnc1C1c2n[nH]c(=O)c3cc(F)cc(c23)NC1c1ccc(F)cc1` (stereo unspecified): the viability, T/C is 102% and 101% and 105%.

Still in this assay, the particulars now being: compound 0.003 µM; stronger effect = lower value.
Regarding `CC(C)CC(NC(=O)C(Cc1ccccc1)NC(=O)c1cnccn1)B(O)O` (stereo unspecified), the viability, T/C is 10.6% and 12.6% and 7.27%.
As for `CCc1c2c(nc3ccc(O)cc13)-c1cc3c(c(=O)n1C2)COC(=O)[C@]3(O)CC`, the viability, T/C is 43.4% and 54.1% and 42.9%.
Same read-out and setting: the result for `Nc1ncn(C2CC(O)C(CO)S2)c(=O)n1` (stereo unspecified) reads 99.2% and 94.3% and 81.9%.

The assay is the same for the next values; noted with them: compound 0.00316 µM; stronger effect = lower value.
On to `CC1COCCN1c1cc(-c2ccnn2C)c2ccnc(-c3ccn[nH]3)c2n1` (stereo unspecified), for which the viability, T/C was 107% and 93.3% and 81%.
Consider `CC[C@@]1(O)C(=O)OCc2c1cc1n(c2=O)Cc2cc3c(CN(C)C)c(O)ccc3nc2-1`, for which the viability, T/C was 93.6% and 63.5% and 81.3%.
Still for that read-out and setting: the result for `Cn1ncnc1C1c2n[nH]c(=O)c3cc(F)cc(c23)NC1c1ccc(F)cc1` (stereo unspecified) reads 99.4% and 111% and 92.2%; that for `Nc1ncn(C2CC(O)C(CO)O2)c(=O)n1` (stereo unspecified), 105% and 99.7% and 103%.

Still in this assay, the particulars now being: compound 0.00949 µM; stronger effect = lower value.
In the case of `CC(C)CC(NC(=O)C(Cc1ccccc1)NC(=O)c1cnccn1)B(O)O` (stereo unspecified), the viability, T/C is 1.45% and 2.68% and 2.76%.
Turning to `CCN(c1cc(-c2ccc(CN3CCOCC3)cc2)cc(C(=O)NCc2c(C)cc(C)[nH]c2=O)c1C)C1CCOCC1`, the viability, T/C is 111% and 107% and 122%.
The same measure, in the same setting: the result for `CCc1c2c(nc3ccc(O)cc13)-c1cc3c(c(=O)n1C2)COC(=O)[C@]3(O)CC` reads 20.6% and 16% and 22.3%; that for `Nc1ncn(C2CC(O)C(CO)S2)c(=O)n1` (stereo unspecified), 96.8% and 87.4% and 85.6%.
Consider `O=C(C=Cn1cnc(-c2cc(C(F)(F)F)cc(C(F)(F)F)c2)n1)NNc1cnccn1`, for which the viability, T/C is 101% and 61.6% and 69.8%.

Staying with this assay, now noted: compound 0.01 µM; stronger effect = lower value.
Take `CC1COCCN1c1cc(-c2ccnn2C)c2ccnc(-c3ccn[nH]3)c2n1` (stereo unspecified): the viability, T/C was 106% and 116% and 95.6%.
Still for that read-out and setting: with `CC[C@@]1(O)C(=O)OCc2c1cc1n(c2=O)Cc2cc3c(CN(C)C)c(O)ccc3nc2-1` the figure was 84.2% and 87.1% and 64%.
On the same count and under the same terms, the result for `Cn1ncnc1C1c2n[nH]c(=O)c3cc(F)cc(c23)NC1c1ccc(F)cc1` (stereo unspecified) reads 93.1% and 74.3% and 87%.
Still for that read-out and setting: with `Nc1ncn(C2CC(O)C(CO)O2)c(=O)n1` (stereo unspecified) the figure was 103% (2×) and 68.3%.

The assay is the same for the next values; noted with them: compound 0.03 µM; stronger effect = lower value.
With `CC(C)CC(NC(=O)C(Cc1ccccc1)NC(=O)c1cnccn1)B(O)O` (stereo unspecified), the viability, T/C is 0.95% and 1.46% and 2.12%.
On the same count and under the same terms, with `CCN(c1cc(-c2ccc(CN3CCOCC3)cc2)cc(C(=O)NCc2c(C)cc(C)[nH]c2=O)c1C)C1CCOCC1` the figure was 109% and 98.9% and 71.2%; with `CCc1c2c(nc3ccc(O)cc13)-c1cc3c(c(=O)n1C2)COC(=O)[C@]3(O)CC`, 7.29% and 12% and 8.26%; with `Nc1ncn(C2CC(O)C(CO)S2)c(=O)n1` (stereo unspecified), 73.7% and 78.3% and 64.3%.
The same measure, in the same setting: the result for `O=C(C=Cn1cnc(-c2cc(C(F)(F)F)cc(C(F)(F)F)c2)n1)NNc1cnccn1` reads 59.3% and 45% and 45.2%.

The assay is the same for the next values; noted with them: compound 0.0316 µM; stronger effect = lower value.
In the case of `CC1(C)CCC(CN2CCN(c3ccc(C(=O)NS(=O)(=O)c4ccc(NCC5CCOCC5)c([N+](=O)[O-])c4)c(Oc4cnc5[nH]ccc5c4)c3)CC2)=C(c2ccc(Cl)cc2)C1`, the viability, T/C was 97.2% and 117% and 104%.
Still for that read-out and setting: with `CC1COCCN1c1cc(-c2ccnn2C)c2ccnc(-c3ccn[nH]3)c2n1` (stereo unspecified) the figure was 96.8% and 76.4% and 101%; with `CC[C@@]1(O)C(=O)OCc2c1cc1n(c2=O)Cc2cc3c(CN(C)C)c(O)ccc3nc2-1`, 43.4% and 42.2% and 21.3%.
